The values that follow come from US20240390434A1, “PROBIOTIC ENHANCERS AND USES THEREOF” (Blis Technologies Limited, priority 2021, published 2024).

What all share (format): cell-based
In experiment [1] the test system is S. sobrinus OMZ176. Briefly: Deferred antagonism assay, producer S. salivarius K12. The following applies: Streptococcus sobrinus, read-out: Size of zone inhibition normalised to control, S. sobrinus OMZ176. The procedure:
(§1) 1-2 producer strain colonies were transferred from a stock plate into 900 μL of suspension solution using a fresh cotton swab. Following this, suspensions were vortexed, and a sample was inoculated onto solid culture media using a fresh cotton swab. The inoculation was a streak that runs diametrically across the agar plate in a 1.5 cm wide strip. The plate was then incubated. Following incubation all visible colonies were removed by swabbing them from the agar surface. The plates were then treated with chloroform by dispensing 2 ml of chloroform onto 4 cm×4 cm piece of cloth and sealing the inverted agar plate on top for 30 minutes. The plates were then air dried for 30 minutes following chloroforming. 1-2 indicator strain colonies were then transferred from a stock plate into complementary suspension solution. The suspensions were then vortexed, and a sample was inoculated onto the same agar surface. These samples were streaked in a perpendicular direction to the initial producer streak.
(§2) Each indicator streak was prepared with fresh a suspension containing cells from a corresponding stock plate containing the indicator strain of interest. Indicator strains suspension samples were transferred using a fresh cotton swab. Results were measured by qualitatively reviewing the subsequent (if any) sizes of the zones of inhibition (ZOI) of indicator strain colony growth. A positive result is when there is a distinctive reduction or complete inhibition of indicator colony growth on the culture medium.
(§3) Method: CABCa agar plates were prepared with or without 0.5, 1.25, 1.7, 2.5, 3.3 and 5% galactose by the addition of 0.5% (w/v) calcium carbonate to solid CAB agar in bottles and then melted by autoclaving at 110° C. for 10 mins. Once cooled, filter sterilised solutions of the saccharides or distilled water were added and mixed and then 20 ml pipetted into petri dishes.
(§4) A deferred antagonism assay was conducted using K12 or M18 raw ingredient suspended in Todd Hewitt broth (THB). This was spread as a 1.2 cm streak containing approximately 1-2×10^6 cfu down the middle of a CABCa control or CABCa galactose supplemented test plate. After 18 hrs growth at 37° C. with 5% CO2, bacterial growth was removed, and the pH of the agar in the initial streak was measured and adjusted to a pH of 6.5-7.5 using 0.5M sodium carbonate pH11 before sterilizing the agar surface using chloroform vapor. Bacterial test strains were suspended in i-THB before being swabbed across the plates perpendicular to the initial streak. Plates were incubated for a further 18 hrs incubation at 37° C. with 5% CO2 before measuring (mm) any zones of inhibition for each test strain, […]

Another experiment has as its system S. pyogenes M57. Briefly: Dose response deferred antagonism assay, producer K12. The following applies: 0.1%, 1.0%, and 1.5% (w/v) galactose. The procedure:
as §1, §2
(§5) CABCa agar plates containing various concentrations of saccharide were prepared according to the methods described in Method 1. Producer strains were transferred from stock agar plates into 900 μL THB using a fresh cotton swab. A plastic spread plater was cut to approximately 1.2 cm width and then dipped into ethanol and left to air dry to ensure sterility. A 100 μL sample of the producer strain suspension was then dispensed onto the agar surface in a straight line running diametrically across the agar surface in (approximately) 20 μL spots. The spots were spaced approximately 1.5 cm apart from each other. The plastic spreader was then used to evenly distribute the spots across the agar surface in a 1.5 cm wide strip. This step was taken to ensure an even producer streak was inoculated onto the agar surface and provided an approximate measure of the initial inoculum concentration. Separate plastic spreaders were used for samples containing different producer strains. The samples were left to soak into the agar surface until there was no visible liquid remaining on the agar surface (approximately 20 minutes). Following producer streak preparations, the deferred antagonism assay protocol was followed as per Method 2. Results were recorded by measuring the size of the zone of inhibition (ZOI) in mm.
(§6) The results presented in FIG. 1 and FIG. 2 illustrate the change in ear, nose, and throat (ENT) microorganism indicator strain zone of inhibition sizes. When K12 was cultured in the presence of various concentrations of galactose the ZOI sizes for several of the ENTR indicator strains increased markedly from the control condition (FIG. 1). M. catarrhalis TW1 and TW2 display similar changes in the ZOI sizes across the various concentrations of galactose. The change in TW1 ZOI size peaks at 1.5% galactose(w/v) (12 mm) then decreases at 2.0% galactose (w/v), whereas the change of TW2 ZOI size peaks at 2.0% galactose (w/v) (11 mm). The change in L. lactis T-21 ZOI sizes trend upwards relative to the concentration of galactose present in the culture medium.

The subject of another experiment is S. pyogenes M76. Briefly: Dose response deferred antagonism assay, producer M18. The conditions noted are these: 1.5% (w/v) galactose, largest.
Experiment [2] relates to S. sobrinus OMZ176. Briefly: Deferred antagonism assay, producer S. salivarius M18. The conditions noted are these: Streptococcus sobrinus, read-out: Size of zone inhibition normalised to control, S. sobrinus OMZ176. As for the experimental part:
as §1, §2, §3, §4

The next experiment concerns P. aeruginosa I2. Briefly: Dose response deferred antagonism assay, producer M18. The conditions noted are these: 1.5% (w/v) raffinose.
The test system of experiment [3] is H. influenzae TW5. The experiment in a line: Dose response deferred antagonism assay, producer K12. As for the experimental part: as §1, §2, §5, §6
For experiment [4], the system named is H. influenzae TW5. Briefly: Dose response deferred antagonism assay, producer M18. The following applies: 1.5% (w/v) raffinose.
In experiment [5] the test system is halitosis-causing gram-negative bacteria F. nucleatum, P. gingivalis and P. intermedia. Briefly: Deferred antagonism assay (anaerobic), producer M18. The following applies: 2.5% w/w raffinose; or combination with 0.5% w/w galactose. As for the experimental part: Method: CABCa agar plates were prepared with or without 2.5% w/w raffinose, 0.5% w/w galactose or a combination of both saccharides by the addition of 0.5% (w/v) calcium carbonate to solid CAB agar in bottles and then melted by autoclaving at 110° C. for 10 mins. Once cooled, filter sterilised solutions of the saccharides or distilled water were added and mixed and then 20 ml pipetted into petri dishes.
A deferred antagonism assay was conducted using K12 or M18 raw ingredient suspended in THB. This was spread as a 1.2 cm streak containing approximately 1-2×10^6 cfu down the middle of a CABCa control or CABCa galactose supplemented test plate. After 18 hrs growth at 37° C., 5% CO2 in air, bacterial growth was removed, and the pH of the agar in the initial streak was measured and adjusted to a pH of 6.5-7.5 using 0.5M sodium carbonate pH11 before sterilizing the agar surface using chloroform vapor. Bacterial test strains were suspended in THB and swabbed across the plates perpendicular to the initial streak and then the plates were incubated at 37° C. in an anaerobic jar containing an anaeroGen sachet for 4 days. Zones of inhibition for each test strain were then measured (mm).

Consider `O=C[C@H](O)[C@@H](O)[C@@H](O)[C@H](O)CO` [Galactose, D-galactose], for which the zone of inhibition at 1.25 % strength in the experiment with S. sobrinus OMZ176 [1] (Galactose 1.25% w/w) and with S. sobrinus OMZ176 [2] (Galactose 1.25% w/w) was 0 mm each time. Further, the zone of inhibition at 1.7 % strength in the experiment on S. sobrinus OMZ176 [1] (Galactose 1.7% w/w) and in the experiment on S. sobrinus OMZ176 [2] (Galactose 1.7% w/w) was 0 mm each time. Besides, the zone of inhibition at 2.5 % strength in the experiment with S. sobrinus OMZ176 [1] (Galactose 2.5% w/w) and in the experiment on S. sobrinus OMZ176 [2] (Galactose 2.5% w/w) was 0 mm in each case. Moreover, the zone of inhibition at 3.3 % strength in the experiment with S. sobrinus OMZ176 [1] (Galactose 3.3% w/w) and with S. sobrinus OMZ176 [2] (Galactose 3.3% w/w) was 0 mm each time. Moreover, the zone of inhibition at 5 % strength with S. sobrinus OMZ176 [1] (Galactose 5% w/w) and in the experiment with S. sobrinus OMZ176 [2] (Galactose 5% w/w) was 0 mm throughout. Also, the “S. pyogenes M57 ZOI sizes vs control condition” value in the experiment with S. pyogenes M57 was “increase”. In addition, in the experiment with S. pyogenes M76, the “S. pyogenes M76 zone of inhibition” value is 14 mm. The zone of inhibition at 0.5 % strength in the experiment on S. sobrinus OMZ176 [2] (Galactose 0.5% w/w) was 0 mm.
With `OC[C@H]1O[C@H](OC[C@H]2O[C@H](O[C@]3(CO)O[C@H](CO)[C@@H](O)[C@@H]3O)[C@H](O)[C@@H](O)[C@@H]2O)[C@H](O)[C@@H](O)[C@H]1O` [Raffinose, D-(+) Raffinose pentahydrate], in the experiment with P. aeruginosa I2, the “P. aeruginosa I2 ZOI” value came out at 10 mm. Moreover, in the experiment on H. influenzae TW5 [3] (1.5% raffinose (w/v), peak), the “change in ZOI size for H. influenzae TW5” value came to 12 mm. The “TW5 ZOI size change” value with H. influenzae TW5 [3] (2% raffinose (w/v)) was 0 mm. Further, the “H. influenzae TW5 ZOI size” value in the experiment with H. influenzae TW5 [4] was 26 mm. The “antimicrobial activity of M18 against halitosis-causing bacteria” value in experiment [5] is “inhibit some strains”.

As usually defined, the zone of inhibition is the size of the clear area around the sample on an inoculated plate.
